Data published in patent EP0546013B1, “GLUCAGON ANALOGS WITH ASP-9 REPLACEMENTS OR DELETIONS” (THE ROCKEFELLER UNIVERSITY, priority 1990, dated 1997).
Ends that are not written are not given here.

Experiments:
[1] = tested on: adenylate cyclase; settings: measured as amides; for pA2 Value: negative logarithm of the antagonist concentration that reduces the response to 1 unit of agonist to that of 0.5 unit; for % Relative Activity: relative potency in stimulating adenylate cyclase
Protocol: The inhibition index is the molar ratio of antagonist to agonist which reduces the biological response to one half of the value for the agonist in the absence of antagonist. It will be discussed more fully hereinafter.
Adenylate Cyclase Assay. The assay on liver membranes was performed according to Salomon et al. [Salomon, Y., Londos, C. & Rodbell, M. Anal. Biochem. 58, 541, 548 (1974)].
The purpose of the adenylate cyclase assay is to measure the ability of the compound under test to stimulate the activity of adenylate cyclase. The assays are used to measure relative potency, maximum activity and inhibition index.
The inhibition index, defined above, was determined from adenylate cyclase assays by two different protocols. • 1. A glucagon standard curve for cAMP vs glucagon concentration was established. Then another glucagon assay curve was measured in the presence of a constant amount of antagonist. […] A series of tubes were set up containing an amount of glucagon which will produce 90% of maximum response. Increasing amounts of antagonist were then added and the concentration that reduced the response to 45% of maximum was determined.

[2] = tested on: glucagon receptor; settings: prior-art antagonist, background; cited from earlier work
[3] = tested on: another binding system in the hepatocyte membrane; settings: prior-art antagonist, background; cited from earlier work
[4] = tested on: adenylate cyclase; settings: prior-art antagonist, background; cited from earlier work

Row | Molecule | pA2 Value [1] | % Relative Activity [1] [%] | binding to the glucagon receptor [2] | production of inositol trisphosphate and calcium ions [3] | activation of adenylate cyclase [4]
1 | CSCC[C@H](NC(=O)[C@H](CC(C)C)NC(=O)[C@H](Cc1c[nH]c2ccccc12)NC(=O)[C@H](CCC(N)=O)NC(=O)[C@@H](NC(=O)[C@H](Cc1ccccc1)NC(=O)[C@H](CC(=O)O)NC(=O)[C@H](CCC(N)=O)NC(=O)[C@H](C)NC(=O)[C@H](CCCNC(=N)N)NC(=O)[C@H](CCCNC(=N)N)NC(=O)[C@H](CO)NC(=O)[C@H](CC(=O)O)NC(=O)[C@H](CC(C)C)NC(=O)[C@H](Cc1ccc(O)cc1)NC(=O)[C@H](CCCCN)NC(=O)[C@H](CO)NC(=O)[C@H](Cc1ccc(O)cc1)NC(=O)[C@@H](CC(=O)O)NC(=O)[C@H](CO)NC(=O)[C@@H](NC(=O)[C@H](Cc1ccccc1)NC(=O)[C@@H](NC(=O)CNC(=O)[C@H](CCC(N)=O)NC(=O)[C@@H](N)CO)[C@@H](C)O)[C@@H](C)O)C(C)C)C(=O)N[C@@H](CC(N)=O)C(=O)N[C@H](C(N)=O)[C@@H](C)O [compound 10, des-His^1[D-Asp^9]] | 5.9 | <0.0028 |  |  | 
2 | CSCC[C@H](NC(=O)[C@H](CC(C)C)NC(=O)[C@H](Cc1c[nH]c2ccccc12)NC(=O)[C@H](CCC(N)=O)NC(=O)[C@@H](NC(=O)[C@H](Cc1ccccc1)NC(=O)[C@H](CC(=O)O)NC(=O)[C@H](CCC(N)=O)NC(=O)[C@H](C)NC(=O)[C@H](CCCNC(=N)N)NC(=O)[C@H](CCCNC(=N)N)NC(=O)[C@H](CO)NC(=O)[C@H](CC(=O)O)NC(=O)[C@H](CC(C)C)NC(=O)[C@H](Cc1ccc(O)cc1)NC(=O)[C@H](CCCCN)NC(=O)[C@H](CO)NC(=O)[C@H](Cc1ccc(O)cc1)NC(=O)[C@@H](CCC(=O)O)NC(=O)[C@H](CO)NC(=O)[C@@H](NC(=O)[C@H](Cc1ccccc1)NC(=O)[C@@H](NC(=O)CNC(=O)[C@H](CCC(N)=O)NC(=O)[C@@H](N)CO)[C@@H](C)O)[C@@H](C)O)C(C)C)C(=O)N[C@@H](CC(N)=O)C(=O)N[C@H](C(N)=O)[C@@H](C)O [compound 11, des-His^1[D-Glu^9]] | 5.4 | <0.0037 |  |  | 
3 | COC(=O)CC[C@H](NC(=O)[C@H](CO)NC(=O)[C@@H](NC(=O)[C@H](Cc1ccccc1)NC(=O)[C@@H](NC(=O)CNC(=O)[C@H](CCC(N)=O)NC(=O)[C@@H](N)CO)[C@@H](C)O)[C@@H](C)O)C(=O)N[C@@H](Cc1ccc(O)cc1)C(=O)N[C@@H](CO)C(=O)N[C@@H](CCCCN)C(=O)N[C@@H](Cc1ccc(O)cc1)C(=O)N[C@@H](CC(C)C)C(=O)N[C@@H](CC(=O)O)C(=O)N[C@@H](CO)C(=O)N[C@@H](CCCNC(=N)N)C(=O)N[C@@H](CCCNC(=N)N)C(=O)N[C@@H](C)C(=O)N[C@@H](CCC(N)=O)C(=O)N[C@@H](CC(=O)O)C(=O)N[C@@H](Cc1ccccc1)C(=O)N[C@H](C(=O)N[C@@H](CCC(N)=O)C(=O)N[C@@H](Cc1c[nH]c2ccccc12)C(=O)N[C@@H](CC(C)C)C(=O)N[C@@H](CCSC)C(=O)N[C@@H](CC(N)=O)C(=O)N[C@H](C(N)=O)[C@@H](C)O)C(C)C [compound 12, des-His^1[Glu^9-(OCH3)]] | 7.35 | 0.011 |  |  | 
4 | CCCC[C@H](NC(=O)[C@H](CO)NC(=O)[C@@H](NC(=O)[C@H](Cc1ccccc1)NC(=O)[C@@H](NC(=O)CNC(=O)[C@H](CCC(N)=O)NC(=O)[C@@H](N)CO)[C@@H](C)O)[C@@H](C)O)C(=O)N[C@@H](Cc1ccc(O)cc1)C(=O)N[C@@H](CO)C(=O)N[C@@H](CCCCN)C(=O)N[C@@H](Cc1ccc(O)cc1)C(=O)N[C@@H](CC(C)C)C(=O)N[C@@H](CC(=O)O)C(=O)N[C@@H](CO)C(=O)N[C@@H](CCCNC(=N)N)C(=O)N[C@@H](CCCNC(=N)N)C(=O)N[C@@H](C)C(=O)N[C@@H](CCC(N)=O)C(=O)N[C@@H](CC(=O)O)C(=O)N[C@@H](Cc1ccccc1)C(=O)N[C@H](C(=O)N[C@@H](CCC(N)=O)C(=O)N[C@@H](Cc1c[nH]c2ccccc12)C(=O)N[C@@H](CC(C)C)C(=O)N[C@@H](CCSC)C(=O)N[C@@H](CC(N)=O)C(=O)N[C@H](C(N)=O)[C@@H](C)O)C(C)C [compound 18, des - His^1 [Nle^9] glucagon amide] | 7.6 | <0.0012 |  |  | 
5 | DSQGTFTSHYSKYLDSRRAQDFVQWLMNT-NH2 [compound 9, Asp^1His^9] | 6.3 | <0.0009 |  |  | 
6 | HSQGTFTSYSKYLDSRRAQDFVQWLMNT-NH2 [compound 2, des-Asp^9] | 7.2 | 1.04 |  |  | 
7 | Nα- trinitrophenyl [12-homoarginine] glucagon |  |  | does bind to the glucagon receptor | activates another binding system in the hepatocyte membrane leading to the production of inositol trisphosphate and calcium ions | without significant activation of adenylate cyclase
8 | SQGTFTSFYSKYLDSRRAQDFVQWLMNT-NH2 [compound 19, des-His^1[Phe^9]] | 6.2 | <0.0003 |  |  | 
9 | SQGTFTSGYSKYLDSRRAQDFVQWLMNT-NH2 [compound 15, des - His^1 [Gly^9] glucagon amide] | 6.24 | <0.006 |  |  | 
10 | SQGTFTSHYSKYLDSRRAQDFVQWLMNT-NH2 [compound 17, des-His^1[His^9]] | 7.0 | 0.011 |  |  | 
11 | SQGTFTSKYSKYLDSRRAQDFVQWLMNT-NH2 [compound 16, des - His^1 [Lys^9] glucagon amide] | 7.35 | <0.0012 |  |  | 
12 | SQGTFTSNYSKYLDSRRAQDFVQWLMNT-NH2 [compound 13, des-His^1[Asn^9]] | 6.52 | <0.0026 |  |  | 
13 | SQGTFTSQYSKYLDSRRAQDFVQWLMNT-NH2 [compound 14, des-His^1[Gln^9]] | 8.21 | <0.003 |  |  | 
14 | SQGTFTSYSKYLDSRRAQDFVQWLMNT-NH2 [compound 20, des-His^1des-Asp^9] | 5.5 | <0.0022 |  |  | 
